# Experimental data from US7781428B2 (Pfizer Inc., priority 2006, dated 2010).
# Structures can show the parent of a compound that is named as a salt.
# Biological target: T1, mineralocorticoid receptor (MR) (Homo sapiens, UniProt P08235)
# T1 construct: expressed in transfected cells; host or cells: Huh7 (human liver cells)
# T1 sequence (P08235 726-964 limits assumed): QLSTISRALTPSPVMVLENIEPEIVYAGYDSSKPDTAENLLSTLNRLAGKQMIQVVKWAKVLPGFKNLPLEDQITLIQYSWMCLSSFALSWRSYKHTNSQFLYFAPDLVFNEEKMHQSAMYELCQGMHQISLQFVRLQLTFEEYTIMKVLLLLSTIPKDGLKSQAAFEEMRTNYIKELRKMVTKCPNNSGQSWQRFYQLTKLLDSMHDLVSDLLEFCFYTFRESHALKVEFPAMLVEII
# Experiment: Cell-based Gal4 response element-controlled luciferase reporter assay (MR antagonism)
# Conditions: Huh7 human liver cells transfected with Gal4 DBD-MR LBD fusion and luciferase reporter; block of agonist-induced activation; overnight incubation
# Description: Method 1: Cell-based Gal4 Response Element-controlled Luciferase Reporter Assay
# An in vitro assay can be used to evaluate mineralocorticoid receptor (MR) antagonism by a test compound. […] An agonist of the receptor can bind to and activate the receptor LBD, which activate the expression of the Gal4 response element containing luciferase reporter gene. Antagonists can compete for binding to the receptor LBDs and decrease the transcription activity of the reporter gene. Measurement of luciferase activity allows quantitative determinations of the reporter transcription in the presence of either agonists or agonists and antagonists in combination. β-galactosidase activity, which is unaffected by ligand, is used to normalize the transfection efficiency in the cell population.
# Huh7 cells were plated in RPMI1640+10% fetal bovine serum (Invitrogen Corporation, San Diego, Calif.), at 10,000 cells per well in 96-well tissue culture dishes for approximately 24 hours. Cells were then transfected using FuGENE™ 6 Transfection Reagent according to manufacturers' instructions (Roche Molecular Biochemicals, Indianapolis, Ind.). Approximately 20 hours after transfection, media were removed. Cells were washed once with PBS and treated (n=6/group) with agonist for each receptor (all chemicals from Sigma, St. Louis, Mo.), and with compounds. Agonist concentrations represent 70-80% of full activation of each receptor.
# Compounds were dissolved in DMSO at 10 mM and diluted to final concentrations in phenol red-free media that contained 10% charcoal- and dextran-stripped serum (Life Technologies, Gathersburg, Md.). Following overnight incubation (18-20 hours) with compounds, the medium was removed and replaced with 100 μL per well of PBS and 100 μL of Steady-Glo™ lysis buffer with luciferase substrate (Promega Corporation, Madison, Wis.). After a 30-minute incubation to completely lyse the cells, 100 μL of the lysate was transferred to a black, Dynatech Microfluor assay plates (Dynex Corporation, Chantilly, Va.) to measure luciferase activity. The plate was sealed with TopSeal self-adhesive film, dark-adapted for 5 minutes, then counted in a TopCount Plate Reader (Packard Instrument Company, Meriden, Conn.) in single photon counting mode. The remaining lysate was used for determination of β-galactosidase activity. In a clear 96-well assay plate, 100 μL of cell lysate was added to 100 μL β-galactosidase assay buffer per well. The assay buffer consisted of 60 mM Na2HPO4, 40 mM NaH2PO4, 10 mM KCl, 1 mM MgSO4, 50 mM β-mercaptoethanol, and 2.5 mg/mL ONPG, the latter two reagents were added just prior to assay (all chemicals from Sigma). The reaction was allowed to proceed until a distinct yellow color developed. Reactions were stopped by the addition of 100 μL per well 1 M Na2CO3 and plates were read at 420 nm in Victor-2 (Perkin Elmer Life Sciences, Boston, Mass.). Values (relative luciferase activity) for each sample were expressed as a ratio of luciferase activity to OD420β-galactosidase activity measured in arbitrary units for each well. […] “b” is the slope, “c” is the IC50 or EC50. “x” is the concentration of the compound and “y” the activity at that concentration.
row,Structure (SMILES),IC50 [nM]
1,"N#Cc1ccc(N2N=C3c4ccc(C(=O)O)cc4CCC3C2C2CCOCC2)cc1 (racemic) [Example 37, 2-(4-cyanophenyl)-3-(tetrahydro-2H-pyran-4-yl)-3,3a,4,5-tetrahydro-2H-benzo[g]indazole-7-carboxylic acid]",> 1000
2,N#Cc1ccc(N2N=C3c4ccc(C(=O)O)cc4CC[C@@H]3[C@@H]2C2CCCC2)cc1O (racemic) [Example 33],> 500
3,"Cc1cc(N2N=C3c4ccc(C(=O)O)cc4OC[C@@H]3[C@@H]2C2CCCC2)ccc1C#N (single isomer, unassigned) [Example 62]",26
4,"N#Cc1ccc(N2N=C3c4ccc(C(=O)O)cc4CCC3C2C2CCNCC2)cc1Cl (racemic) [Example 38, 2-(3-chloro-4-cyanophenyl)-3-(piperidin-4-yl)-3,3a,4,5-tetrahydro-2H-benzo[g]indazole-7-carboxylic acid trifluoroacetate]",> 1000
5,"CCN(CC)CCN(CCN(CC)CC)C(=O)c1ccc2c(c1)CC[C@H]1C2=NN(c2ccc(C#N)c(Cl)c2)[C@H]1c1ccc(F)cc1 (racemic) [Example 107, (±)-(3RS,3aRS)-2-(3-chloro-4-cyanophenyl)-N,N-bis(2-(diethylamino)ethyl)-3-(4-fluorophenyl)-3,3a,4,5-tetrahydro-2H-benzo[g]indazole-7-carboxamide bistrifluoroacetate]",523
6,"N#Cc1ccc(N2N=C3c4ccc(C(=O)O)cc4OCC3C2C2=CCCC2)cc1Cl (racemic) [Example 78, (±)-(3RS,3aRS)-2-(3-chloro-4-cyanophenyl)-3-cyclopentenyl-2,3,3a,4-tetrahydrochromeno[4,3-c]pyrazole-7-carboxylic acid]",70
7,"N#Cc1ccc(N2N=C3c4ccc(C(=O)O)cc4CC[C@H]3[C@H]2c2ccc(F)cc2)cc1 [Example 12, (3S,3aS)-2-(4-cyanophenyl)-3-(4-fluorophenyl)-3,3a,4,5-tetrahydro-2H-benzo[g]indazole-7-carboxylic acid]",> 10000
8,CS(=O)(=O)CCNC(=O)c1ccc2c(c1)CC[C@H]1C2=NN(c2ccc(C#N)c(Cl)c2)[C@H]1C1CCOCC1 (racemic) [Example 100],21
9,"CS(=O)(=O)CCNC(=O)c1ccc2c(c1)CCC1C2=NN(c2ccc(C#N)c(Cl)c2)C1c1ccc(F)cc1 (racemic) [Example 97, (±)-(3RS,3aRS)-2-(3-chloro-4-cyanophenyl)-3-(4-fluorophenyl)-N-(2-(methylsulfonyl)ethyl)-3,3a,4,5-tetrahydro-2H-benzo[g]indazole-7-carboxamide]",12
10,"N#Cc1ccc(N2N=C3c4ccc(C(=O)O)cc4OCC3C2C2CCCC2)cc1Cl (racemic) [Example 64, 2-(3-chloro-4-cyanophenyl)-3-cyclopentyl-2,3,3a,4-tetrahydrochromeno[4,3-c]pyrazole-7-carboxylic acid]",65
11,"N#Cc1ccc(N2N=C3c4ccc(CC(=O)O)cc4OCC3C2c2ccc(F)cc2)cc1 (racemic) [Example 79, (±)-(3RS,3aRS)-[2-(4-cyanophenyl)-3-(4-fluorophenyl)-2,3,3a,4-tetrahydrochromeno[4,3-c]pyrazol-7-yl]acetic acid]",6920
12,"N#Cc1ccc(N2N=C3c4ccc(C(=O)O)cc4OCC3C2c2ccc(F)cc2)cc1 (racemic) [Example 58, 2-(4-cyanophenyl)-3-(4-fluorophenyl)-2,3,3a,4-tetrahydrochromeno[4,3-c]pyrazole-7-carboxylic acid]",3180
13,"N#Cc1ccc(N2N=C3c4ccc(C(=O)NCC(=O)NCC(=O)O)cc4CC[C@@H]3[C@@H]2c2ccc(F)cc2)cc1Cl (racemic) [Example 110, (±)-2-(2-((3RS,3aRS)-2-(3-chloro-4-cyanophenyl)-3-(4-fluorophenyl)-3,3a,4,5-tetrahydro-2H-benzo[g]indazole-7-carboxamido)acetamido)acetic acid]",> 1000
14,"COC(=O)c1ccc2c(c1)CCC1C2=NN(c2ccc(C#N)c(OCc3ccccc3)c2)C1C1CCCC1 (racemic) [Example 30, methyl 2-(3-(benzyloxy)-4-cyanophenyl)-3-cyclopentyl-3,3a,4,5-tetrahydro-2H-benzo[g]indazole-7-carboxylate]",446
15,"N#Cc1ccc(N2N=C3c4ccc(OS(=O)(=O)C(F)(F)F)cc4OCC3C2c2ccc(F)cc2)cc1Cl (racemic) [Example 92, 2-(3-chloro-4-cyanophenyl)-3-(4-fluorophenyl)-2,3,3a,4-tetrahydrochromeno[4,3-c]pyrazol-7-yl trifluoromethanesulfonate]",> 1000
16,"COc1cc(N2N=C3c4ccc(C(=O)O)cc4CC[C@H]3[C@H]2C2CCCC2)ccc1C#N [Example 27, (3R,3aS)-2-(4-cyano-3-methoxyphenyl)-3-cyclopentyl-3,3a,4,5-tetrahydro-2H-benzo[g]indazole-7-carboxylic acid]",305
17,"Cc1nc(N2N=C3c4ccc(C(=O)O)cc4CCC3C2C2CCCC2)ccc1C#N (racemic) [Example 24, 2-(5-cyano-6-methylpyridin-2-yl)-3-cyclopentyl-3,3a,4,5-tetrahydro-2H-benzo[g]indazole-7-carboxylic acid]",8
18,"N#Cc1ccc(N2N=C3c4ccc(C(=O)O)cc4OCC3C2C2CCCC2)cc1Cl (racemic) [Example 67, 2-(3-chloro-4-cyanophenyl)-3-cyclopentyl-2,3,3a,4-tetrahydrochromeno[4,3-c]pyrazole-7-carboxylic acid]",146
19,"N#Cc1ccc(N2N=C3c4ccc(C(=O)O)cc4CCC3C2c2ccc(F)cc2)cn1 (racemic) [Example 14, 2-(6-cyanopyridin-3-yl)-3-(4-fluorophenyl)-3,3a,4,5-tetrahydro-2H-benzo[g]indazole-7-carboxylic acid trifluoroacetate]",929
20,"N#Cc1ccc(N2N=C3c4ccc(O)cc4CCC3C2c2ccc(F)cc2)cc1 (racemic) [Example 90, (±)-4-((3RS,3aSR)-3-(4-fluorophenyl)-7-hydroxy-3,3a,4,5-tetrahydrobenzo[g]indazol-2-yl)benzonitrile]",1100
21,"Cc1cc(N2N=C3c4ccc(C(=O)O)cc4OC[C@H]3[C@H]2C2CCCC2)ccc1C#N (single isomer, unassigned) [Example 63]",> 1000
22,"N#Cc1ccc(N2N=C3c4ccc(C(=O)O)cc4OC[C@H]3[C@H]2C2CCCC2)cc1 [Example 72, (3R,3aS)-2-(4-cyanophenyl)-3-cyclopentyl-2,3,3a,4-tetrahydrochromeno[4,3-c]pyrazole-7-carboxylic acid]",8100
23,"N#Cc1ccc(N2N=C3c4ccc(C(=O)O)cc4OC[C@@H]3[C@@H]2C2CCCC2)cc1 [Example 71, (3S,3aR)-2-(4-cyanophenyl)-3-cyclopentyl-2,3,3a,4-tetrahydrochromeno[4,3-c]pyrazole-7-carboxylic acid]",205
24,"N#Cc1ccc(N2N=C3c4cc(C(=O)NCCN5CCCC5)ccc4CC[C@@H]3[C@@H]2c2ccc(F)cc2)cc1Cl (racemic) [Example 112, (±)-(3RS13aRS)-2-(3-chloro-4-cyanophenyl)-3-(4-fluorophenyl)-N-(2-(pyrrolidin-1-yl)ethyl)-3,3a,4,5-tetrahydro-2H-benzo[g]indazole-8-carboxamide]",1550
25,"N#Cc1ccc(N2N=C3c4ccc(C(=O)O)cc4CC[C@@H]3[C@@H]2c2ccc(F)cc2)cc1Cl [Example 3, (3R,3aR)-2-(3-chloro-4-cyanophenyl)-3-(4-fluorophenyl)-3,3a,4,5-tetrahydro-2H-benzo[g]indazole-7-carboxylic acid]",40.7
26,"Cc1cc(N2N=C3c4ccc(C(=O)O)cc4CCC3C2C2=CCCC2)ccc1C#N (racemic) [Example 51, 2-(4-cyano-3-methylphenyl)-3-cyclopentenyl-3,3a,4,5-tetrahydro-2H-benzo[g]indazole-7-carboxylic acid]",7
